This note sets out measurements from patent US11464770B2, “Anticancer pharmaceutical composition” (NATIONAL CANCER CENTER, priority 2016, dated 2022).

Each structure is given as a SMILES string. Where two headings read alike, the source gives them in different places. Where only a bound is given, the exact number is not on record here.

The test system of the test is colorectal cancer cell lines (e.g. DLD-1, HCT 116, SW620, HCT-15, HCT-8, RKO). Description: Cell based assay, cell viability (CellTiter-Glo), colorectal cancer cell lines. As for the experimental part:
Commercially available bladder cancer, prostate cancer, lung cancer, breast cancer, blood cancer, pancreatic cancer, colorectal cancer, brain cancer, neuroblastoma, melanoma, liver cancer, cervical carcinoma, ovarian cancer, renal cancer, and papilloma cell lines were each treated with trypsin-EDTA and cultured, followed by being seeded in each well of a 96 well plate. After 24 hours of treatment at constant temperature, the respective cells were treated with the candidate compound so that a final concentration became 0 to 2 μM. The treated cells were additionally cultured for 72 hours, and cell viability was measured by using an ATP detection method (CellTiter-Glo® Luminescent Cell Viability Assay, Promega).
A general note: Cellular ATP, detected with luciferase, serves as a proxy for viable cell number.

[1] abbreviates: Homo sapiens, DLD-1, 72 hours treatment, read-out: IC50, colorectal cancer cell line DLD-1.
Setting [2] is: Homo sapiens, HCT 116, 72 hours treatment, read-out: IC50, colorectal cancer cell line HCT 116.
Setting [3] is: Homo sapiens, HCT-8, 72 hours treatment, read-out: IC50, colorectal cancer cell line HCT-8.
Where [4] appears, read: Homo sapiens, HCT-15, 72 hours treatment, read-out: IC50, colorectal cancer cell line HCT-15.
The mark [5] stands for this setting: Homo sapiens, HT-29, 72 hours treatment, read-out: IC50, colorectal cancer cell line HT-29.
Setting [6] is: Homo sapiens, LoVo, 72 hours treatment, read-out: IC50, colorectal cancer cell line LoVo.
[7] abbreviates: Homo sapiens, SW480, 72 hours treatment, read-out: IC50, colorectal cancer cell line SW480.
[8] abbreviates: Homo sapiens, SW-620, SW620, 72 hours treatment, read-out: IC50, colorectal cancer cell line SW620.
Where [9] appears, read: RKO, 72 hours treatment, read-out: IC50, colorectal cancer cell line RKO.

As for `CC(=O)c1c([S+](C)[O-])[nH]c2c(Br)ccc(Cl)c2c1=O` (stereo not drawn) [Compound 1, 3-acetyl-8-bromo-5-chloro-2-(methylsulfinyl)quinolin-4(1H)-one], the IC50 reads like this: under setting [1], 810 nM; under setting [2], 1670 nM; under setting [3], above 2000 nM; under setting [4], above 2000 nM; under setting [5], above 10000 nM; under setting [6], above 2000 nM. In addition, the IC50 was above 2000 nM under setting [7], above 2000 nM under setting [8] and above 2000 nM under setting [9].

In the case of `CSc1[nH]c2c(Br)ccc(Cl)c2c(=O)c1C(C)=O` [Compound 2, 3-acetyl-8-bromo-5-chloro-2-(methylthio)quinolin-4(1H)-one], the IC50 under setting [1] is above 2000 nM; the half-maximal inhibitory concentration (IC50) under setting [2] was above 2000 nM; the IC50 under setting [3] was above 2000 nM; the half-inhibitory concentration (IC50) under setting [4] was above 2000 nM; the IC50 under setting [5] is above 10000 nM; the IC50 under setting [6] is above 2000 nM. Moreover, the IC50 by setting is: under setting [7], above 2000 nM; under setting [8], above 2000 nM; under setting [9], above 2000 nM.

`CC(=O)c1c(SCc2ccccc2)[nH]c2c(Br)ccc(Cl)c2c1=O` [Compound 3, 3-acetyl-2-(benzylthio)-8-bromo-5-chloroquinolin-4(1H)-one]: the IC50 is, setting by setting: under setting [1], above 2000 nM; under setting [2], above 2000 nM; under setting [3], above 2000 nM; under setting [4], above 2000 nM; under setting [5], above 10000 nM; under setting [6], above 2000 nM. Further, the IC50 under setting [7] was above 2000 nM, the IC50 under setting [8] was above 2000 nM and the IC50 under setting [9] was above 2000 nM.

Take `CC(=O)c1c([S+]([O-])Cc2ccccc2)nc2c(Br)ccc(Cl)c2c1O` (stereo not drawn) [Compound 4]: the IC50 by setting is: under setting [1], 1840 nM; under setting [2], 1150 nM; under setting [3], 1580 nM; under setting [4], 1330 nM; under setting [5], above 10000 nM; under setting [6], 1800 nM. For the same molecule, the IC50 under setting [7] was above 2000 nM, the IC50 under setting [8] is 1330 nM and the IC50 under setting [9] stood at 1550 nM.

As for `CSc1c(C(C)=O)c(=O)c2c(Cl)ccc(Br)c2n1C` [Compound 5, 3-acetyl-8-bromo-5-chloro-1-methyl-2-(methylthio)quinolin-4(1H)-one], the IC50 runs as follows: under setting [1], above 2000 nM; under setting [2], above 2000 nM; under setting [3], above 2000 nM; under setting [4], above 2000 nM; under setting [5], above 10000 nM; under setting [6], above 2000 nM. For the same molecule, the IC50 was above 2000 nM under setting [7], above 2000 nM under setting [8] and above 2000 nM under setting [9].

With `CC(=O)c1c([S+](C)[O-])[nH]c2c(Cl)ccc(Cl)c2c1=O` (stereo not drawn) [Compound 6, 3-acetyl-5,8-dichloro-2-(methylsulfinyl)quinolin-4(1H)-one], the IC50 is, setting by setting: under setting [1], 700 nM; under setting [2], 1480 nM; under setting [3], above 2000 nM; under setting [4], 1700 nM; under setting [5], above 10000 nM; under setting [6], above 2000 nM. Besides, the IC50 runs as follows: under setting [7], above 2000 nM; under setting [8], 1550 nM; under setting [9], 1840 nM.

In the case of `CSc1c(C(C)=O)c(=O)c2cc(F)ccc2n1C` [Compound 7, 3-acetyl-6-fluoro-1-methyl-2-(methylthio)quinolin-4(1H)-one], the IC50 reads like this: under setting [1], above 2000 nM; under setting [2], above 2000 nM; under setting [3], above 2000 nM; under setting [4], above 2000 nM; under setting [5], above 10000 nM; under setting [6], above 2000 nM. In addition, the IC50 was above 2000 nM under setting [7], above 2000 nM under setting [8] and above 2000 nM under setting [9].

Consider `CSc1[nH]c2ccc(F)cc2c(=O)c1C(C)=O` [Compound 8, 1-(6-fluoro-4-hydroxy-2-(methylthio)quinolin-3-yl)ethan-1-one], for which the IC50 by setting is: under setting [1], above 2000 nM; under setting [2], above 2000 nM; under setting [3], above 2000 nM; under setting [4], above 2000 nM; under setting [5], above 10000 nM; under setting [6], above 2000 nM. Further, the IC50 is above 2000 nM under setting [7], above 2000 nM under setting [8] and above 2000 nM under setting [9].

`CC(=O)c1c([S+](C)[O-])n(C(=O)c2ccc(Br)cc2)c2c(Br)ccc(Cl)c2c1=O` (stereo not drawn) [Compound 9, 3-acetyl-8-bromo-1-(4-bromobenzoyl)-5-chloro-2-(methylsulfinyl)quinolin-4(1H)-one]: the IC50 reads like this: under setting [1], 870 nM; under setting [2], 1050 nM; under setting [3], 1750 nM; under setting [4], 1240 nM; under setting [5], above 10000 nM; under setting [6], above 2000 nM. Also, the IC50 is 1280 nM under setting [7], 1360 nM under setting [8] and 1930 nM under setting [9].

Take `CC(=O)c1c(SCc2ccc(Cl)cc2)[nH]c2c(Br)ccc(Cl)c2c1=O` [Compound 10, 3-acetyl-8-bromo-5-chloro-2-((4-chlorobenzyl)thio)quinolin-4(1H)-one]: the IC50 is, setting by setting: under setting [1], above 2000 nM; under setting [2], above 2000 nM; under setting [3], above 2000 nM; under setting [4], above 2000 nM; under setting [5], above 10000 nM; under setting [6], above 2000 nM. For the same molecule, the IC50 reads like this: under setting [7], above 2000 nM; under setting [8], above 2000 nM; under setting [9], above 2000 nM.

Regarding `CC(=O)c1c([S+]([O-])Cc2ccc(Cl)cc2)[nH]c2c(Br)ccc(Cl)c2c1=O` (stereo not drawn) [Compound 11, 3-acetyl-8-bromo-5-chloro-2-((4-chlorobenzyl)sulfinyl)quinolin-4(1H)-one], the IC50 under setting [1] was determined as 820 nM; the IC50 under setting [2] was above 2000 nM; the IC50 under setting [3] is above 2000 nM; the IC50 under setting [4] is above 2000 nM; the concentration for half-maximal inhibition (IC50) under setting [5] is above 10000 nM; the IC50 under setting [6] is above 2000 nM. Further, the IC50 was above 2000 nM under setting [7], above 2000 nM under setting [8] and above 2000 nM under setting [9].

With `CC(=O)c1c(Sc2ccccc2)[nH]c2c(Br)ccc(Cl)c2c1=O` [Compound 12, 3-acetyl-8-bromo-5-chloro-2-(phenylthio)quinolin-4(1H)-one], the IC50 under setting [1] was above 2000 nM; the IC50 under setting [2] was above 2000 nM; the IC50 under setting [3] is above 2000 nM; the IC50 under setting [4] was above 2000 nM; the IC50 under setting [5] is above 10000 nM; the IC50 under setting [6] is above 2000 nM. For the same molecule, the IC50 was above 2000 nM under setting [7], above 2000 nM under setting [8] and above 2000 nM under setting [9].

Consider `CC(=O)c1c([S+]([O-])c2ccccc2)[nH]c2c(Br)ccc(Cl)c2c1=O` (stereo not drawn) [Compound 13, 3-acetyl-8-bromo-5-chloro-2-(phenylsulfinyl)quinolin-4(1H)-one], for which the IC50 is, setting by setting: under setting [1], above 2000 nM; under setting [2], above 2000 nM; under setting [3], above 2000 nM; under setting [4], above 2000 nM; under setting [5], above 10000 nM; under setting [6], above 2000 nM. Also, the IC50 under setting [7] was above 2000 nM, the IC50 under setting [8] is above 2000 nM and the IC50 under setting [9] is above 2000 nM.

`COc1ccccc1Sc1[nH]c2c(Br)ccc(Cl)c2c(=O)c1C(C)=O` [Compound 14, 3-acetyl-8-bromo-5-chloro-2-((2-methoxyphenyl)thio)quinolin-4(1H)-one]: the IC50 is, setting by setting: under setting [1], above 2000 nM; under setting [2], above 2000 nM; under setting [3], above 2000 nM; under setting [4], above 2000 nM; under setting [5], above 10000 nM; under setting [6], above 2000 nM. Moreover, the IC50 under setting [7] is above 2000 nM, the IC50 under setting [8] was above 2000 nM and the IC50 under setting [9] was above 2000 nM.

With `COc1ccccc1[S+]([O-])c1[nH]c2c(Br)ccc(Cl)c2c(=O)c1C(C)=O` (stereo not drawn) [Compound 15, 3-acetyl-8-bromo-5-chloro-2-((2-methoxyphenyl)sulfinyl)quinolin-4(1H)-one], the IC50 is above 2000 nM under setting [1]; above 2000 nM under setting [2]; above 2000 nM under setting [3]; above 2000 nM under setting [4]; above 10000 nM under setting [5]; above 2000 nM under setting [6]. Also, the IC50 under setting [7] is above 2000 nM, the IC50 under setting [8] was above 2000 nM and the IC50 under setting [9] is above 2000 nM.

For the molecule `CC(=O)c1c(Sc2ccc(Br)cc2)[nH]c2c(Br)ccc(Cl)c2c1=O` [Compound 16, 3-acetyl-8-bromo-2-((4-bromophenyl)thio)-5-chloroquinolin-4(1H)-one], the IC50 by setting is: under setting [1], above 2000 nM; under setting [2], above 2000 nM; under setting [3], above 2000 nM; under setting [4], above 2000 nM; under setting [5], above 10000 nM; under setting [6], above 2000 nM. For the same molecule, the IC50 reads like this: under setting [7], above 2000 nM; under setting [8], above 2000 nM; under setting [9], above 2000 nM.

In the case of `CC(=O)c1c([S+]([O-])c2ccc(Br)cc2)[nH]c2c(Br)ccc(Cl)c2c1=O` (stereo not drawn) [Compound 17, 3-acetyl-8-bromo-2-((4-bromophenyl)sulfinyl)-5-chloroquinolin-4(1H)-one], the IC50 was above 2000 nM under setting [1]; above 2000 nM under setting [2]; above 2000 nM under setting [3]; above 2000 nM under setting [4]; above 10000 nM under setting [5]; above 2000 nM under setting [6]. The IC50 was above 2000 nM under setting [7], above 2000 nM under setting [8] and above 2000 nM under setting [9].

On to `CSc1c(C(C)=O)c(=O)c2c(Cl)ccc(Br)c2n1C(C)=O` [Compound 18, 1,1′-(8-bromo-5-chloro-2-(methylthio)-4-oxoquinoline-1,3(4H)-diyl)bis(ethan-1-one)], for which the IC50 was above 2000 nM under setting [1]; above 2000 nM under setting [2]; above 2000 nM under setting [3]; above 2000 nM under setting [4]; above 10000 nM under setting [5]; above 2000 nM under setting [6]. The IC50 by setting is: under setting [7], above 2000 nM; under setting [8], above 2000 nM; under setting [9], above 2000 nM.

As to `CC(=O)c1c([S+](C)[O-])n(C(C)=O)c2c(Br)ccc(Cl)c2c1=O` (stereo not drawn) [Compound 19, 1,1′-(8-bromo-5-chloro-2-(methylsulfinyl)-4-oxoquinoline-1,3(4H)-diyl)bis(ethan-1-one)], the IC50 is, setting by setting: under setting [1], above 2000 nM; under setting [2], above 2000 nM; under setting [3], above 2000 nM; under setting [4], above 2000 nM; under setting [5], above 10000 nM; under setting [6], above 2000 nM. Also, the IC50 was above 2000 nM under setting [7], above 2000 nM under setting [8] and above 2000 nM under setting [9].

Turning to `CC(=O)c1c([S+]([O-])Cc2ccccc2)n(C(=O)c2ccc(Br)cc2)c2c(Br)ccc(Cl)c2c1=O` (stereo not drawn) [Compound 20, 3-acetyl-2-(benzylsulfinyl)-8-bromo-1-(4-bromobenzoyl)-5-chloroquinolin-4(1H)-one], the IC50 is above 2000 nM under setting [1]; above 2000 nM under setting [2]; above 2000 nM under setting [3]; above 2000 nM under setting [4]; above 10000 nM under setting [5]; above 2000 nM under setting [6]. The IC50 is, setting by setting: under setting [7], above 2000 nM; under setting [8], above 2000 nM; under setting [9], above 2000 nM.

Usually IC50 stands for the concentration needed to halve the response being measured.
